What is called IC50 is the concentration that inhibits the measured activity by half. The term IC90 denotes the concentration at which the effect reaches the 90% level.

For the test, the system named is Plasmodium berghei. In words: Luciferase/luciferin-expressing antifolate-resistant parasites were used to infect a culture of HepG2 cells that were pre-incubated with compounds. Infected hepatocytes emit light due to the luciferase reaction. Assay results are presented as the percent inhibition of light emission compared to control. […]. The test is classed as functional. The following applies: sporozoite; for IC90: read-out: LUCIFERASE INFECTION ASSAY - IC90.

Where [1] appears, read: read-out: LUCIFERASE INFECTION ASSAY - IC50.

Each structure is given as a SMILES string.

Consider `CC(CCc1ccccc1)Nc1ccc(S(N)(=O)=O)cc1[N+](=O)[O-]` (stereo not drawn), for which the IC90 is greater than 10 µM. Further, for the setting “HEPG2TOX_HILL_SLOPE 0.279, HEPG2TOX_R_SQUARED 0.54, PBLUC_HILL_SLOPE 1.88, PBLUC_R_SQUARED 0.412, read-out: LUCIFERASE INFECTION ASSAY - IC50”, the IC50 was found to be 8.69 µM.
Regarding `O=C1CCCN1CCCNc1cc(-c2ccccc2)c2ccccc2n1`, the IC90 was found to be 4.46 µM. In addition, the IC50 (HEPG2TOX_HILL_SLOPE 0.987, HEPG2TOX_R_SQUARED 0.959, PBLUC_HILL_SLOPE 13.1, PBLUC_R_SQUARED 0.545, read-out: LUCIFERASE INFECTION ASSAY - IC50) turned out to be 3.77 µM.
In the case of `CC(C)(C)c1cc2nc(C(F)(F)F)cc(SCCOC(=O)Nc3cccc(Cl)c3)n2n1`, the IC90 was greater than 6.98 µM. Under “HEPG2TOX_HILL_SLOPE 1.03, HEPG2TOX_R_SQUARED 0.0682, read-out: LUCIFERASE INFECTION ASSAY - IC50”, the IC50 was greater than 6.98 µM.
As to `COc1ccc2c(-c3sc(Nc4ccc(C(C)C)cc4)c(-c4nc5ccccc5s4)c3N)cc(=O)oc2c1`, the IC90 came out at 2.94 µM. The IC50 (HEPG2TOX_HILL_SLOPE 1.27, HEPG2TOX_R_SQUARED 0.95, PBLUC_HILL_SLOPE 4.32, PBLUC_R_SQUARED 0.419, read-out: LUCIFERASE INFECTION ASSAY - IC50) turned out to be 1.76 µM.
For the compound `O=C(c1cccc(-c2nn[nH]n2)c1)N1CCC2CCCCC2C1` (stereo not drawn), the IC90 was greater than 10 µM. For the same compound, the IC50 under setting [1] is greater than 10 µM.
Regarding `CCCn1c(NC(=O)Cc2csc(NC(=O)c3ccco3)n2)nc2ccccc21`, the IC90 is greater than 10 µM. Besides, the IC50 (PBLUC_HILL_SLOPE 1.19, PBLUC_R_SQUARED 0.0275, read-out: LUCIFERASE INFECTION ASSAY - IC50) was greater than 10 µM.
Regarding `COC(=O)C1=C(C)N(c2cccc(C(F)(F)F)c2)C(=S)NC1c1ccc(O)c(OC)c1` (stereo not drawn), the 90% effect concentration (IC90) amounted to 1.57 µM. Besides, the IC50 (HEPG2TOX_HILL_SLOPE 1.61, 1.73, HEPG2TOX_R_SQUARED 0.946, 0.571, PBLUC_HILL_SLOPE 8.66, 0.516, PBLUC_R_SQUARED 0.631, 0.614, read-out: LUCIFERASE INFECTION ASSAY - IC50) amounted to 0.906 µM.
Regarding `Nc1nccnc1C(=O)Nc1nnc(-c2cccc(Br)c2)[nH]1`, the IC90 is greater than 10 µM. For the same compound, the IC50 under setting [1] was greater than 10 µM.
For the compound `Cc1cccc(NC(=O)NC(=O)CSc2ccc(S(=O)(=O)N(C)C)cn2)c1C`, the IC90 is greater than 10 µM. Besides, where the note is “FFLUC_HILL_SLOPE 22.1, FFLUC_R_SQUARED 0.241, read-out: LUCIFERASE INFECTION ASSAY - IC50”, the IC50 was greater than 10 µM.
On to `CCCc1c(Cc2c(F)cccc2Cl)c(=O)oc2cc(OC(=O)c3ccccc3Cl)ccc12`, for which the IC90 was greater than 6.8 µM. Also, the IC50 under setting [1] is greater than 6.8 µM.
Regarding `CC(=O)Nc1cccc(C(=O)Nn2cnc3ccccc3c2=O)c1`, the IC90 was greater than 10 µM. The IC50 under setting [1] was greater than 10 µM.
Consider `CCOc1ccc(CN(CC)C(=O)c2ccc(=O)[nH]c2)cc1OC`, for which the IC90 is greater than 10 µM. Also, under setting [1], the IC50 is greater than 10 µM.
In the case of `O=C(Nc1nc2ccccc2[nH]1)c1ccoc1`, the IC90 is greater than 10 µM. In addition, the IC50 (HEPG2TOX_HILL_SLOPE 2.41, HEPG2TOX_R_SQUARED 0.931, read-out: LUCIFERASE INFECTION ASSAY - IC50) is greater than 10 µM.
Turning to `CCOc1cccc(-c2cn3c(-c4ccc(C#N)cc4)cnc3cn2)c1`, the IC90 is greater than 9.69 µM. In addition, the IC50 (PBLUC_HILL_SLOPE 4.27, PBLUC_R_SQUARED 0.47, read-out: LUCIFERASE INFECTION ASSAY - IC50) came out at 6.18 µM.
With `N#C/C(=N\Nc1cccc(Cl)c1)C(=O)c1cc(-c2ccccc2)c(C(F)(F)F)s1`, the concentration for an effect of 90% (IC90) came to 1.5 µM. Besides, the IC50 (HEPG2TOX_HILL_SLOPE 1.47, HEPG2TOX_R_SQUARED 0.986, PBLUC_HILL_SLOPE 2.41, PBLUC_R_SQUARED 0.872, read-out: LUCIFERASE INFECTION ASSAY - IC50) stood at 0.605 µM.
As for `Cc1cc(C(=O)CSC(c2ccccc2)c2ccccc2)c(C)n1C`, the IC90 was greater than 10 µM. In addition, under setting [1], the IC50 is greater than 10 µM.
Consider `Nc1ncc(-c2ccc(F)c(Cl)c2)cc1-c1ccc(O)cc1`, for which the IC90 is greater than 10.5 µM. For the same compound, the IC50 under setting [1] is greater than 10.5 µM.
As to `NS(=O)(=O)c1ccc(N/N=C/c2cn(-c3ccccc3)nc2-c2cccs2)c([N+](=O)[O-])c1`, the IC90 is greater than 10 µM. Besides, the IC50 under setting [1] is greater than 10 µM.
In the case of `CC(C)(C)c1ccc(C(=O)NC(=S)Nc2nc3c(s2)CCCC3)cc1`, the IC90 turned out to be 8.77 µM. The IC50 (PBLUC_HILL_SLOPE 2.3, PBLUC_R_SQUARED 0.829, read-out: LUCIFERASE INFECTION ASSAY - IC50) came to 3.37 µM.
Take `CCOC(=O)C1=C(c2ccccc2)N=C(N)NC1c1ccc(OCc2ccc(Cl)cc2)c(OC)c1` (stereo not drawn): the IC90 was greater than 10 µM. Also, the IC50 (PBLUC_HILL_SLOPE 5.7, PBLUC_R_SQUARED 0.538, read-out: LUCIFERASE INFECTION ASSAY - IC50) is 7.1 µM.
On to `CCC(CC)CN1C[C@H](OCc2ccccc2)C[C@H]1C(=O)NC(c1ccccc1)c1ccccc1`, for which the IC90 was greater than 7.01 µM. Moreover, the IC50 under setting [1] was greater than 7.01 µM.
As for `CCN(CC(=O)Nc1ccccc1C(F)(F)F)CC(=O)N1CCc2ccccc21`, the IC90 worked out at 7.42 µM. Also, the concentration for half-maximal inhibition (IC50) (HEPG2TOX_HILL_SLOPE 12.9, HEPG2TOX_R_SQUARED 0.752, PBLUC_HILL_SLOPE 284, PBLUC_R_SQUARED 0.135, read-out: LUCIFERASE INFECTION ASSAY - IC50) was 7.36 µM.
For `CN(CC(=O)Nc1ccc(-c2nc3ccccc3[nH]2)cc1)S(=O)(=O)c1ccc(Cl)s1`, the IC90 was greater than 10 µM. Moreover, for the setting “HEPG2TOX_HILL_SLOPE 1.06, HEPG2TOX_R_SQUARED 0.764, PBLUC_HILL_SLOPE 1.55, PBLUC_R_SQUARED 0.165, read-out: LUCIFERASE INFECTION ASSAY - IC50”, the IC50 is greater than 10 µM.
On to `Cc1c(OCc2ccc(Br)cc2)ccc2c1OC(C)(C)C=C2`, for which the IC90 was determined as 0.652 µM. The 50% inhibitory concentration (IC50) under setting [1] was determined as 0.199 µM.
For the compound `COc1ccc(-c2cnc3ccc(NCc4ccc(C)cc4C)nn23)cn1`, the IC90 came to 9.01 µM. Moreover, under “HEPG2TOX_HILL_SLOPE 9.76, HEPG2TOX_R_SQUARED 0.857, PBLUC_HILL_SLOPE 10.1, PBLUC_R_SQUARED 0.466, read-out: LUCIFERASE INFECTION ASSAY - IC50”, the IC50 was found to be 7.25 µM.
For `COc1cc(-c2ccc3ncc(-c4cccc(CO)c4)n3n2)cc(OC)c1OC`, the IC90 stood at 2.51 µM. Besides, the IC50 (HEPG2TOX_HILL_SLOPE 2.11, HEPG2TOX_R_SQUARED 0.989, PBLUC_HILL_SLOPE 5.29, PBLUC_R_SQUARED 0.606, read-out: LUCIFERASE INFECTION ASSAY - IC50) turned out to be 1.66 µM.
In the case of `Cc1cccc(C2CC(=O)c3cnn(-c4nc(C)cc(C)n4)c3C2)c1` (stereo not drawn), the IC90 was 1.39 µM. Besides, for the setting “HEPG2TOX_HILL_SLOPE 1.23, HEPG2TOX_R_SQUARED 0.907, PBLUC_HILL_SLOPE 2.7, PBLUC_R_SQUARED 0.565, read-out: LUCIFERASE INFECTION ASSAY - IC50”, the IC50 amounted to 0.617 µM.
Take `COc1ccc(Nc2cc(C)nc(Nc3ccc(OC)cc3)n2)cc1`: the IC90 was determined as 3.93 µM. Besides, the IC50 (HEPG2TOX_HILL_SLOPE 1.69, HEPG2TOX_R_SQUARED 0.922, PBLUC_HILL_SLOPE 13, PBLUC_R_SQUARED 0.323, read-out: LUCIFERASE INFECTION ASSAY - IC50) is 3.32 µM.
For `COc1cc(/C=C2\COC/C(=C\c3cc(OC)c(OC)c(OC)c3)C2=O)cc(OC)c1OC`, the IC90 was 0.888 µM. Moreover, under “HEPG2TOX_HILL_SLOPE 2.96, HEPG2TOX_R_SQUARED 0.98, PBLUC_HILL_SLOPE 14, PBLUC_R_SQUARED 0.753, read-out: LUCIFERASE INFECTION ASSAY - IC50”, the IC50 is 0.759 µM.
In the case of `Cc1cc(Br)c(O)c(/C=N/NC(=S)NC(C)(C)C)c1`, the IC90 came to 4.85 µM. The IC50 (HEPG2TOX_HILL_SLOPE 12.3, HEPG2TOX_R_SQUARED 0.401, PBLUC_HILL_SLOPE 113, PBLUC_R_SQUARED 0.332, read-out: LUCIFERASE INFECTION ASSAY - IC50) was 4.76 µM.
Take `CC1(c2ccc3ccccc3c2)NC(=O)N(CC(=O)NC(CN2CCOCC2)c2ccccc2)C1=O` (stereo not drawn): the IC90 was greater than 10 µM. Further, the IC50 under setting [1] is greater than 10 µM.
With `CN(Cc1ccccc1)S(=O)(=O)c1ccc(Cl)c(C(=O)Nc2nnc(C(F)(F)F)[nH]2)c1`, the IC90 turned out to be 7.66 µM. Moreover, under “PBLUC_HILL_SLOPE 3.05, PBLUC_R_SQUARED 0.465, read-out: LUCIFERASE INFECTION ASSAY - IC50”, the IC50 came to 3.73 µM.
As to `CCCC(=O)Nc1ccc(-c2csc(NC(=O)c3cc(C)oc3C)n2)cc1`, the IC90 was greater than 10 µM. Further, the IC50 under setting [1] was greater than 10 µM.
In the case of `CSC(=NNc1ccc([N+](=O)[O-])cc1)NC(=O)c1c(Cl)cccc1Cl`, the IC90 is greater than 8.27 µM. The IC50 (PBLUC_HILL_SLOPE 1.5, PBLUC_R_SQUARED 0.194, read-out: LUCIFERASE INFECTION ASSAY - IC50) turned out to be 7.91 µM.
With `O=C(CN(Cc1ccco1)C(=O)c1ccc(-c2cccc(C(F)(F)F)c2)o1)Nc1ccccc1Br`, the IC90 is greater than 10 µM. In addition, under setting [1], the IC50 is greater than 10 µM.
In the case of `OCc1cccc(-c2cnc3ccc(-c4ccc(F)cc4)nn23)c1`, the IC90 turned out to be 6.8 µM. In addition, the IC50 (HEPG2TOX_HILL_SLOPE 2.34, HEPG2TOX_R_SQUARED 0.934, PBLUC_HILL_SLOPE 3.16, PBLUC_R_SQUARED 0.564, read-out: LUCIFERASE INFECTION ASSAY - IC50) was found to be 3.39 µM.
As to `O=C(NCCCn1cnc2ccccc21)c1ccccc1Nc1ccccc1`, the IC90 is greater than 10 µM. Further, where the note is “PBLUC_HILL_SLOPE 3.77, PBLUC_R_SQUARED 0.592, read-out: LUCIFERASE INFECTION ASSAY - IC50”, the IC50 came to 7.09 µM.
In the case of `Nc1nc(-c2ccc(OCc3ccc(F)cc3)cc2)cs1`, the IC90 is greater than 8.66 µM. Further, the concentration for half-maximal inhibition (IC50) under setting [1] was greater than 8.66 µM.
For the compound `CC(C)(C)c1ccc(NC(=S)NCCCCCCNC(=S)Nc2ccc(C(C)(C)C)cc2)cc1`, the IC90 is greater than 6.62 µM. Moreover, the IC50 under setting [1] is greater than 6.62 µM.

For the origin of these results see ChEMBL document CHEMBL4483862, “Open-source discovery of chemical leads for next-generation chemoprotective antimalarials” (2018).
